Converted amounts (≈) assume the structure as drawn. Where a SMILES comes first, the peptide text is derived from it.
Key:
[1] = tested on: Escherichia coli (ATCC 25922); assay: MIC assay in liquid medium (twofold dilutions) against E. coli; type: cell-based; conditions: lowest concentration in twofold dilutions with no growth; 5×10^5 CFU/ml, Müller-Hinton broth, 37°C, 18 hours, read by eye; duplicate or triplicate, min–max if variable
Procedure: (§1) Seventeen predicted and recovered peptides were de novo synthesized using solid-phase technology by CASLO Laboratory ApS (Lyngby, Denmark) and delivered as HPLC-purified (>95%) trifluoracetate (TFA) salts. The peptide salts were stored as 5.12 mM stock solutions in 0.01% (V/V) acetic acid/0.2% (m/V) BSA. Peptides were tested against Escherichia coli (ATCC 25922) and Pseudomonas aeruginosa (ATCC 15692), Staphylococcus aureus (ATCC 25923), Micrococcus luteus, Saccharomyces cerevisiae, a protozoan parasite (Trypanosoma brucei brucei), mouse (Mus musculus) red blood cells and mouse spleen tissue cultures (containing 50–60% B-cells, ∼25–30% T-cells, and 5% myeloid cells). All assays were performed in duplicate or triplicate.
(§2) Activity against the bacteria and fungus was measured by assessing the lowest peptide concentration in a series of twofold dilutions at which no growth was detected (known as the minimum inhibitory concentration, MIC). Bacterial and yeast cultures (5×10^5 colony forming units/ml) were prepared in Müller-Hinton (MH) broth and Luria-Bertani (LB) broth respectively and transferred to serial dilutions of peptides ranging from 512 or 256 µM down to 1 or 0.5 µM in 96-well polypropylene plates. After incubation at 37°C (bacteria) or 30°C (S. cerevisiae) for 18 hours, growth of the cultures was checked by eye. In addition to MIC, we determined minimum microbicidal concentrations (MMC) by inoculating samples of the MIC assays on agar plates lacking peptides and checking for overnight growth. In all cases, MIC and MMC were identical.

[2] = tested on: T-lymphocytes (naive C57Black/6 splenocytes); assay: Inhibition of Concanavalin A-induced T-cell proliferation in spleen cell cultures; type: cell-based, Mus musculus; conditions: lowest concentration causing at least 50% inhibition of Concanavalin A-induced T-cell proliferation; 2×10^5 splenocytes, 24 h + 18 h [3H]thymidine, 37°C; min–max if variable
Procedure: as §1
Activity against T-lymphocytes was assessed as the lowest peptide concentration in a series of twofold dilutions causing at least 50% inhibition of Concanavalin A-induced T-cell proliferation (IC50). Solutions containin 2×10^5 naive C57Black/6 splenocytes in the presence of 2.5 µg Concanavalin A were added to polypropylene 96-well plates containing the serial peptide dilutions to obtain total volumes of 100 µl. After incubation for 24 hours at 37°C in a humidified atmosphere, the cells were pulsed with [^3H]thymidine and incubated for an additional 18 hours. The amount of [^3H]thymidine incorporation was assessed by a β-counter as a measure of cell proliferation and the percentage of proliferation inhibition for each peptide concentration was calculated as 100×(1−(Tobs/T100%)), where Tobs is the [^3H]thymidine level measured for the peptide concentration, and T100% is the [^3H]thymidine level measured for Concanavalin-A-induced cell proliferation in the absence of peptide (representing 100% proliferation).

mouse red blood cells = assay: Hemolysis of mouse red blood cells (HC50); type: cell-based; conditions: lowest concentration causing at least 50% hemolysis; mouse blood diluted 1/100 in RPMI, 37°C, 30 minutes, OD 550 nm; 100% = 1% Tween-20
Procedure: as §1
Activity against mouse red blood cells was examined by assessing the lowest peptide concentration in a series of twofold dilutions causing at least 50% hemolysis (HC50). Briefly, heparinized blood was obtained by cardiac puncture of mice euthanized via CO2. The blood was diluted 1/100 in RPMI and added to polypropylene 96-well plates containing the serial peptide dilutions to obtain total volumes of 100 µl. The plates were incubated at 37°C in a humidified atmosphere for 30 minutes and centrifuged at 1400 rpm for 2 minutes to pellet intact red blood cells allowing visual observation of hemolysis. Supernatants were subsequently transferred to 96-well flat-bottom plates to allow spectrophotometry using an ELISA reader (OD measured at 550 nm). The percentage of hemolyis for each peptide concentration was calculated as 100×(ODobs−OD0%)/(OD100%−OD0%), where ODobs is the OD measured for the peptide concentration, OD0% is the average OD in the absence of peptides (0% hemolysis), and OD100% is the average OD in the presence of 1% Tween-20 (100% hemolysis).

[3] = tested on: Staphylococcus aureus (ATCC 25923); assay: MIC assay in liquid medium (twofold dilutions) against S. aureus; type: cell-based; conditions: lowest concentration in twofold dilutions with no growth; 5×10^5 CFU/ml, Müller-Hinton broth, 37°C, 18 hours, read by eye; duplicate or triplicate, min–max if variable
Procedure: as §1, §2

Saccharomyces cerevisiae = assay: MIC assay in liquid medium (twofold dilutions) against S. cerevisiae; type: cell-based; conditions: lowest concentration in twofold dilutions with no growth; 5×10^5 CFU/ml, Luria-Bertani broth, 30°C, 18 hours, read by eye; duplicate or triplicate, min–max if variable
Procedure: as §1, §2

[4] = tested on: Pseudomonas aeruginosa (ATCC 15692); assay: MIC assay in liquid medium (twofold dilutions) against P. aeruginosa; type: cell-based; conditions: lowest concentration in twofold dilutions with no growth; 5×10^5 CFU/ml, Müller-Hinton broth, 37°C, 18 hours, read by eye; duplicate or triplicate, min–max if variable
Procedure: as §1, §2

Micrococcus luteus = assay: MIC assay in liquid medium (twofold dilutions) against M. luteus; type: cell-based; conditions: lowest concentration in twofold dilutions with no growth; 5×10^5 CFU/ml, Müller-Hinton broth, 37°C, 18 hours, read by eye; duplicate or triplicate, min–max if variable
Procedure: as §1, §2

Row | SMILES | MIC E. coli [1] [µM] | IC50 [2] [µM] | HC50 Erythrocytes (mouse red blood cells) [µM] | MIC S. aureus [3] [µM] | MIC S. cerevisiae (Saccharomyces cerevisiae) [µM] | MIC P. aeruginosa [4] [µM] | MIC M. luteus (Micrococcus luteus)
1 | CC[C@H](C)[C@H](NC(=O)[C@H](CC(C)C)NC(=O)[C@H](CCCCN)NC(=O)[C@H](CO)NC(=O)[C@H](C)NC(=O)CNC(=O)[C@H](CCCCN)NC(=O)[C@H](CC(C)C)NC(=O)[C@H](C)NC(=O)[C@H](CCSC)NC(=O)[C@H](CCCCN)NC(=O)[C@H](C)NC(=O)[C@H](Cc1ccccc1)NC(=O)[C@@H](NC(=O)CNC(=O)[C@H](Cc1ccccc1)NC(=O)[C@H](CC(C)C)NC(=O)[C@@H](N)CO)[C@@H](C)O)C(=O)N1CCC[C@H]1C(=O)N[C@@H](Cc1c[nH]cn1)C(=O)N[C@@H](CC(C)C)C(=O)N[C@@H](CC(C)C)C(=O)N1CCC[C@H]1C(=O)N[C@@H](CO)C(=O)N[C@@H](CCCNC(=N)N)C(=O)N[C@@H](CCC(N)=O)C(=O)N[C@@H](CCC(N)=O)C(=O)O [CPF-St4] (H-SLFGTFAKMALKGASKLIPHLLPSRQQ-OH) | 2 to 4 | 2 | 64 | 1 | 16 | 4 to 8 | 0,5 µM
2 | CC[C@H](C)[C@H](NC(=O)[C@H](CC(C)C)NC(=O)[C@H](CCCCN)NC(=O)[C@H](CO)NC(=O)[C@H](C)NC(=O)CNC(=O)[C@H](CCCCN)NC(=O)[C@H](CC(C)C)NC(=O)[C@H](C)NC(=O)[C@H](C)NC(=O)[C@H](CCCCN)NC(=O)[C@H](C)NC(=O)[C@H](CC(C)C)NC(=O)[C@H](CC(C)C)NC(=O)CNC(=O)[C@H](Cc1ccccc1)NC(=O)[C@@H](NC(=O)CN)C(C)C)C(=O)N1CCC[C@H]1C(=O)N[C@@H](Cc1c[nH]cn1)C(=O)N[C@@H](CC(C)C)C(=O)N[C@@H](CC(C)C)C(=O)N1CCC[C@H]1C(=O)N[C@@H](CO)C(=O)N[C@@H](CCCNC(=N)N)C(=O)N[C@@H](CCC(N)=O)C(=O)N[C@@H](CCC(N)=O)C(=O)O [CPF-St5] (H-GVFGLLAKAALKGASKLIPHLLPSRQQ-OH) | 1 (≈ 2.81 µg/mL) | 8 | 64 | 1 (≈ 2.81 µg/mL) | 16 (≈ 45 µg/mL) | 4 to 8 | 0,5 µM
3 | CC[C@H](C)[C@H](NC(=O)[C@@H](N)Cc1ccccc1)C(=O)NCC(=O)N[C@@H](C)C(=O)N[C@@H](CC(C)C)C(=O)N[C@@H](CC(C)C)C(=O)N[C@@H](CCCNC(=N)N)C(=O)N1CCC[C@H]1C(=O)N[C@@H](C)C(=O)N[C@@H](CC(C)C)C(=O)N[C@@H](CCCCN)C(=O)N[C@@H](CC(C)C)C(=O)N[C@@H](CC(C)C)C(=O)N[C@@H](C)C(=O)NCC(=O)N[C@@H](CCCCN)C(=O)O [PFQa-St2] (H-FIGALLRPALKLLAGK-OH) | 32 (≈ 53.8 µg/mL) | 128 | 256 | 16 (≈ 26.9 µg/mL) | 128 (≈ 215 µg/mL) | 256 (≈ 430 µg/mL) | 4 µM (≈ 6.72 µg/mL)
4 | CC[C@H](C)[C@H](NC(=O)[C@H](C)NC(=O)[C@H](CCC(=O)O)NC(=O)[C@H](CC(C)C)NC(=O)CNC(=O)CNC(=O)[C@H](CCCCN)NC(=O)[C@H](C)NC(=O)[C@H](Cc1ccccc1)NC(=O)[C@H](CCCCN)NC(=O)[C@H](CCCCN)NC(=O)[C@H](CC(C)C)NC(=O)CNC(=O)CNC(=O)[C@H](CC(C)C)NC(=O)[C@@H](NC(=O)[C@@H](NC(=O)[C@H](CO)NC(=O)[C@H](Cc1c[nH]c2ccccc12)NC(=O)[C@@H](NC(=O)CN)C(C)C)[C@@H](C)O)C(C)C)C(=O)N[C@H](C(=O)N[C@@H](CC(N)=O)C(=O)N1CCC[C@H]1C(=O)N[C@@H](CCCCN)C(=O)O)C(C)C [XPF-St1] (H-GVWSTVLGGLKKFAKGGLEAIVNPK-OH) | 4 (≈ 10.3 µg/mL) | 16 | 128 | 32 to 64 | 32 (≈ 82.2 µg/mL) | 32 (≈ 82.2 µg/mL) | 0,5 µM
5 | CC[C@H](C)[C@H](NC(=O)[C@H](CO)NC(=O)[C@H](CO)NC(=O)[C@H](C)NC(=O)[C@H](Cc1c[nH]c2ccccc12)NC(=O)CN)C(=O)NCC(=O)N[C@@H](CO)C(=O)N[C@H](C(=O)N[C@@H](CC(C)C)C(=O)NCC(=O)N[C@@H](CCCCN)C(=O)N[C@@H](Cc1ccccc1)C(=O)N[C@@H](C)C(=O)N[C@@H](CCCCN)C(=O)NCC(=O)NCC(=O)N[C@@H](C)C(=O)N[C@@H](CCC(N)=O)C(=O)N[C@@H](C)C(=O)N[C@@H](Cc1ccccc1)C(=O)N[C@@H](CC(C)C)C(=O)N[C@@H](CCC(N)=O)C(=O)N1CCC[C@H]1C(=O)N[C@@H](CCCCN)C(=O)O)[C@@H](C)CC [XPF-St4] (H-GWASSIGSILGKFAKGGAQAFLQPK-OH) | 32 (≈ 80.6 µg/mL) | 64 | 256 | >256 | 64 (≈ 161 µg/mL) | 128 (≈ 323 µg/mL) | 0,5 µM
6 | CC[C@H](C)[C@H](NC(=O)[C@@H]1CCCN1C(=O)[C@H](CCC(N)=O)NC(=O)[C@@H](NC(=O)[C@H](CC(C)C)NC(=O)[C@H](CCCCN)NC(=O)[C@@H]1CCCN1C(=O)CNC(=O)[C@H](CC(C)C)NC(=O)[C@H](CCC(N)=O)NC(=O)[C@H](CCSC)NC(=O)[C@H](C)NC(=O)[C@H](CCCCN)NC(=O)[C@H](CCCNC(=N)N)NC(=O)[C@H](CC(C)C)NC(=O)[C@@H](NC(=O)[C@H](CCCCN)NC(=O)CNC(=O)[C@H](Cc1ccccc1)NC(=O)[C@@H](NC(=O)[C@@H]1CCCN1C(=O)[C@H](CC(C)C)NC(=O)[C@H](Cc1c[nH]c2ccccc12)NC(=O)CN)[C@@H](C)O)[C@@H](C)CC)[C@@H](C)CC)C(=O)O [XPF-St5] (H-GWLPTFGKILRKAMQLGPKLIQPI-OH) | 1 to 2 | 8 to 16 | 128 | 16 (≈ 43.3 µg/mL) | 32 (≈ 86.6 µg/mL) | 8 to 16 | 1 µM (≈ 2.71 µg/mL)
7 | CC[C@H](C)[C@H](NC(=O)[C@H](C)NC(=O)[C@H](CC(=O)O)NC(=O)[C@H](CC(C)C)NC(=O)CNC(=O)CNC(=O)[C@H](CCCCN)NC(=O)[C@H](C)NC(=O)[C@H](Cc1ccccc1)NC(=O)[C@H](CCCCN)NC(=O)[C@H](CCCCN)NC(=O)[C@H](CC(C)C)NC(=O)CNC(=O)CNC(=O)[C@H](CC(C)C)NC(=O)[C@@H](NC(=O)[C@@H](NC(=O)[C@H](CO)NC(=O)[C@H](Cc1c[nH]c2ccccc12)NC(=O)[C@@H](NC(=O)CN)C(C)C)[C@@H](C)O)[C@@H](C)CC)C(=O)N[C@H](C(=O)N[C@@H](CC(N)=O)C(=O)N1CCC[C@H]1C(=O)N[C@@H](CCCCN)C(=O)O)C(C)C [XPF-St6] (H-GVWSTILGGLKKFAKGGLDAIVNPK-OH) | 2 to 4 | 8 | 64 | 8 to 16 | 8 (≈ 20.6 µg/mL) | 16 (≈ 41.1 µg/mL) | 0,5 µM

From paper PMC3731216, “Origin and Functional Diversification of an Amphibian Defense Peptide Arsenal” (PLoS Genetics, 2013)
